# Measurements: US12702692B2, “Therapeutic use of calcium-activated chloride channel peptide activator” (CENTRE NATIONAL DE LA RECHERCHE SCIENTIFIQUE, priority 2020, dated 2026)
# What was measured:
# TMEM16A = target: T1, TMEM16A (Mus musculus, UniProt Q8BHY3); experiment: Whole-cell patch-clamp of HEK293T cells expressing TMEM16A; type: cell-based
# T1 construct: expressed in transfected cells; host or cells: HEK293T
# T1 sequence (Q8BHY3 1-960): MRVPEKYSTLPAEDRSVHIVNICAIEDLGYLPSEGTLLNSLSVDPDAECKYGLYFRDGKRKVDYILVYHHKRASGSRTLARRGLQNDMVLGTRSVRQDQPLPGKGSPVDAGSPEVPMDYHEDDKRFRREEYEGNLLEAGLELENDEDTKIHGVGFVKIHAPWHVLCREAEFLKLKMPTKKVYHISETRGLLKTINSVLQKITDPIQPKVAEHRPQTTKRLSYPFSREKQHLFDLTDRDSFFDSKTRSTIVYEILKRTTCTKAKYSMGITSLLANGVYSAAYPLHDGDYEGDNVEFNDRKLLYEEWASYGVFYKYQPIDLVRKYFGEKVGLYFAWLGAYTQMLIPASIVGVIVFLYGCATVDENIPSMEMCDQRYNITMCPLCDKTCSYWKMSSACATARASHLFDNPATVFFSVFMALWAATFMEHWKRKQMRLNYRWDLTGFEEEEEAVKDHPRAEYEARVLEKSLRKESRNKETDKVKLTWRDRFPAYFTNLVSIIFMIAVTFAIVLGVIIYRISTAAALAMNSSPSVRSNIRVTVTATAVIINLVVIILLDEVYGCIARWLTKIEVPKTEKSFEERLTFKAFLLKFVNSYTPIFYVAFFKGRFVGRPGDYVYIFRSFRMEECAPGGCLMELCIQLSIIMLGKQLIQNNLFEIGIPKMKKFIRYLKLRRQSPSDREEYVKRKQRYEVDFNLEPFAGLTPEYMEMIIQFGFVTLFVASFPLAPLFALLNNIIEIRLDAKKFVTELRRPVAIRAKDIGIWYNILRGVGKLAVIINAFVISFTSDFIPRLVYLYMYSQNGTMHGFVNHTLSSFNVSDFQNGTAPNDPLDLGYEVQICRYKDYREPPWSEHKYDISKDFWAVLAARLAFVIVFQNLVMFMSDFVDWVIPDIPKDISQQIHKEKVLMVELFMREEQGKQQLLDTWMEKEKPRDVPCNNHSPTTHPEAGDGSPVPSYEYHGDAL
# Protocol: mTMEM16A (kindly provided by Dr Lily Yeh Jan) and hKCNE1 cDNA were subcloned in pIRES2eGFP, pXOOM, pcDNA3.1, pCDNA3.1-GFP and pCMV-HA vectors. Truncations and mutations on KCNE1 were generated by PCR. For SiMPull experiments, HA-tags were fused to the N-terminus of sequences, whereas GFP-tags were fused to C-terminal part. HEK293T and PCT cells were transiently co-transfected using Lipofectamine 2000 or the calcium phosphate method with a total amount of 1 and 3.5 μg of DNA, respectively, and seeded on 18 mm diameter coverslips. HEK cells were maintained in DMEM with 5% FBS on poly-L-lysine-coated glass coverslips in 12 well plates. PCT cells from wild type and knock-out mice were microdissected as described previously and maintained in F12 (Gibco) on collagen-coated glass coverslips.
# HEK293T and PCT cell electrophysiology was performed 24-48 h after transfection. For whole-cell patch-clamp experiments cells were recorded in a bath solution containing (in mM) 150 NaCl, 5 KCl, 2 CaCl2 and 10 HEPES, pH 7.4 and 0.05% BSA. The glass pipettes (2-5 MΩ of resistance) were filled with (in mM) 5 NaCl, 135 CsCl, 2 MgCl2, 5 EGTA, 10 HEPES, pH 7.3. Cells were recorded either after incubation of 30 min with the peptide or during perfusion with the peptide. Total calcium concentration was calculated with Maxchelator (maxchelator.standford.edu) for a temperature of 20° C. HEK293T and PCT cells were recorded at room temperature in voltage-clamp mode using an Axopatch 200A (Molecular Devices) amplifier. Signals were filtered at 10 kHz and digitalized at 20 kHz. Whole-cell currents were elicited by voltage-ramps (from −100 to +100 mV, 1 s) and I-V stimulation pulses (from −100 to +100 mV in 20 mV increments, 1 s each pulse), holding the cells at −80 mV. Current densities were measured at +100 mV. Cell recordings, data acquisition and analysis of electrophysiology experiments were performed using pClamp software (Molecular Devices).
# [1] = Acute effect on tear fluid secretion (tearing rate, phenol red thread) in naive rats; type: in vivo, Sprague-Dawley rats
# Protocol: Sprague-Dawley rats (males, around 200 g) were purchased from Charles River and adapted one week before processing the experiment. Two-three rats per cage were housed in a controlled environment of 12 hours intervals of light/dark cycles and free access to food and water. Animal experiments were approved by the Animal Care and Use Committee of the University of Barcelona (CEEA) and the […] de Territori i Sostenibilitat of Generalitat de Catalunya, Catalonia, Spain (319/19; 10935) and followed the ethical guidelines of the International Association for the Study of Pain. […] (also named Nter 13 peptide or […] NO: 2)) and scramble ([…] NO: 7)) peptides were purchased from GenScript Biotech (Leiden, Netherlands) and provided by CNRS. Both peptides were dissolved in Phosphate Buffered Saline (PBS) at 10 mM and used for topical ocular application (5 ul per eye). Tear fluid secretion (tearing rate) was measured using phenol red threads (Zone-Quick, Menicon, Nagoya, Japan) placed on the lower eyelid for 30 s without topical anesthesia (Trost, 2007; Acosta 2013). Tearing rate was determined with an accuracy of ±0.5 mm by measurement of the length of the red portion of the thread. After habituation of the animals, basal tearing rate was measured in both eyes before any topical application of peptides. Then, animals were divided in different groups and a solution containing vehicle (PBS), amiloride (1 mM), peptide N13 or peptide scramble was topically applied to the ocular surface (5 μl) and tearing rate was measured at 1, 3, 6, 12 and 24 h. Tearing rate measurements were done blind to the treatment received by the animals. Data are presented as mean±standard error of the mean (SEM). Statistical differences between different sets of data were assessed by performing repeated measured One-way ANOVA plus Bonferroni's post-tests (each data point in an experimental group vs. basal values) or repeated measured Two-way ANOVA plus Bonferroni's post-tests (each data point in […] group vs. Scramble or Vehicle group; or point in […] or amiloride groups vs. Vehicle group) using Prism 9 (GraphPad Software, San Diego, CA). The significance level was set at p<0.05 in all statistical analyses.
sequence,measurement,setting,value
LARRSPRSSDGKL (SEQ ID NO: 2) (amino acid residues between positions 30 to 42 of the human KCNE1 protein sequence) [N13ter],current density elicited by peptide at +100 mV,"TMEM16A; 100 μM peptide, HEK293T cells expressing TMEM16A alone",15.48±3.25 pA/pF
same,potency on TMEM16A compared with rat N13 peptide,"TMEM16A; 100 μM, HEK293T expressing TMEM16A and Xenopus oocytes (FIG. 9)",more potent
same,effect of peptide application on TMEM16A current,"TMEM16A; HEK293T cells expressing TMEM16A alone, 100 μM for Nter13, S38G and rat peptides",induces TMEM16A current properties
same,tearing rate at 6 h,"[1]; 10 mM topical, 5 μl per eye, n=20 eyes, basal 7.65±0.49 mm (N13ter)",9.65±0.57 mm
same,tearing rate at 12 h,"[1]; 10 mM topical, 5 μl per eye, n=20 eyes, basal 7.65±0.49 mm (N13ter), 8.10±0.54 mm (Scramble)",8.85±0.73 mm
same,tearing rate at 12 h,"[1]; N13ter 10 mM topical, vehicle/amiloride study, n=12 eyes, basal 4.53±0.43",6.66±0.64 mm
same,time after application at which the enhancing effect becomes significant,[1]; N13ter 10 mM vs scramble peptide,6 to 12 h
same,effect on tearing rate compared with Vehicle,"[1]; N13ter 10 mM, amiloride 1 mM, vehicle PBS",significant increase in tearing rate
same,effect on tearing rate,"[1]; N13ter vs Scramble study, both 10 mM topical",small but significant increase in tearing rate
same,"effect on tearing rate vs vehicle, pooled data","[1]; all N13ter 10 mM studies pooled, n=32 eyes, normalized to basal","statistically significant effect at 1, 3, 6, 12 and 24 h, obtaining the maximal increase at 6 and 12 h"
